Drawing on patent publication US20090018134A1, “Compounds - 945” (AstraZeneca AB, priority 2007, published 2009), this text covers IC50 for 28 molecules.

For the first assay, the target named is T1, mTOR (Homo sapiens, UniProt P42345).
T1 construct: FLAG; made in house
T1 sequence (P42345 1362-2549): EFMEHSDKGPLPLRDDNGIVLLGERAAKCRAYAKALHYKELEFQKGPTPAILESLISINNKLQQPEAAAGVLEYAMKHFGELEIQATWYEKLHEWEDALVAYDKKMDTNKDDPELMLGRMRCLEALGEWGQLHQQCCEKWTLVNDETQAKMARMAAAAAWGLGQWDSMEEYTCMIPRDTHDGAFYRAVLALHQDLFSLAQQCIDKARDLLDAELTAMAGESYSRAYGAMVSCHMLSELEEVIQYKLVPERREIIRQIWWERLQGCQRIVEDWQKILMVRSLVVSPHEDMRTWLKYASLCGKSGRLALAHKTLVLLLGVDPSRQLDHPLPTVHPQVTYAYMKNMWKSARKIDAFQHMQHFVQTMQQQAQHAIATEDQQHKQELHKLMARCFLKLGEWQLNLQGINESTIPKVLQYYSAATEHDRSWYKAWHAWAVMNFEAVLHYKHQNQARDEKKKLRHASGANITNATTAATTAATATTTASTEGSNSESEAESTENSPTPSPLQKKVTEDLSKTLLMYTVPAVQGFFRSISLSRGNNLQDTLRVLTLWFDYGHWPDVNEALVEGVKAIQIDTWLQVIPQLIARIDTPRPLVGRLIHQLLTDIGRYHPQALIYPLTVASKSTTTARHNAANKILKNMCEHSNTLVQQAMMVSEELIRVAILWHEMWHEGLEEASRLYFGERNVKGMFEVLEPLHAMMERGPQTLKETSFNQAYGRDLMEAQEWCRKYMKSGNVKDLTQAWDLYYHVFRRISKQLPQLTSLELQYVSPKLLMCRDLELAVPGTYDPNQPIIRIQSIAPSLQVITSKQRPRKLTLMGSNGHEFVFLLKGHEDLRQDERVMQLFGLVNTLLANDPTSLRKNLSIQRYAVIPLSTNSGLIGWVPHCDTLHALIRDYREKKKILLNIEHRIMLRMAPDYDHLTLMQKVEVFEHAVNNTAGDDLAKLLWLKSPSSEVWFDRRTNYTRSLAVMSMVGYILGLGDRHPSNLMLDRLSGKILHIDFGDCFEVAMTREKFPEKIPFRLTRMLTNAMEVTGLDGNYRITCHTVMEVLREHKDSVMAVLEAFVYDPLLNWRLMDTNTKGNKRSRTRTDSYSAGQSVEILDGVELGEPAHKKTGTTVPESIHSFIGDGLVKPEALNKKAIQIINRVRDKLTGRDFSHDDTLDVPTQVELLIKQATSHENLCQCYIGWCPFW
Briefly: In Vitro mTOR Kinase Assay (Echo), Test (a)(ii). The format is biochemical. Conditions: read-out: mTOR Kinase Assay (Echo). The method in brief:
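FLAG-tagged human mTOR truncation (residues 1362-2549) expressed in HEK293 cells and FLAG-purified. Compounds dispensed acoustically, reaction 2 h at room temperature, stopped with EDTA. Phosphorylation of biotinylated peptide detected by AlphaScreen with anti-p70 S6K (T389) antibody overnight; IC50 reported.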
On to `C[C@H]1COCCN1c1cc(C2(S(=O)(=O)c3ccc(F)cc3)CC2)nc(-c2ccc(NC(=O)NC(C)(C)CO)cc2)n1` [Example 8f, 1-[4-[4-[1-(4-fluorophenyl)sulfonylcyclopropyl]-6-[(3S)-3-methylmorpholin-4-yl]pyrimidin-2-yl]phenyl]-3-(1-hydroxy-2-methyl-propan-2-yl)urea], for which the IC50 was found to be 8.82 nM.

With `CCS(=O)(=O)C1(c2cc(N3CCOC[C@@H]3C)nc(-c3ccc(NC(=O)Nc4ccccn4)cc3)n2)CC1` [Example 11l, 1-[4-[4-(1-ethylsulfonylcyclopropyl)-6-[(3S)-3-methylmorpholin-4-yl]pyrimidin-2-yl]phenyl]-3-pyridin-2-yl-urea], the IC50 is 3.56 nM.

For `CC(C)CNC(=O)Nc1ccc(-c2nc(N3CCOC[C@@H]3C)cc(C3(S(=O)(=O)c4ccc(F)cc4)CC3)n2)cc1` [Example 8i, 1-[4-[4-[1-(4-fluorophenyl)sulfonylcyclopropyl]-6-[(3S)-3-methylmorpholin-4-yl]pyrimidin-2-yl]phenyl]-3-(2-methylpropyl)urea], the IC50 was found to be 19.8 nM.

Turning to `CS(=O)(=O)C1(c2cc(N3CCOCC3)nc(-c3ccc(NC(=O)NCCCO)cc3)n2)CCCC1` [Example 12o, 3-(3-hydroxypropyl)-1-[4-[4-(1-methylsulfonylcyclopentyl)-6-morpholin-4-ylpyrimidin-2-yl]phenyl]urea], the IC50 was 5.09 nM.

On to `CC(C)(CO)NC(=O)Nc1ccc(-c2nc(N3CCOCC3)cc(C3(S(C)(=O)=O)CCCC3)n2)cc1` [Example 12m, 3-(1-hydroxy-2-methylpropan-2-yl)-1-[4-[4-(1-methylsulfonylcyclopentyl)-6-morpholin-4-ylpyrimidin-2-yl]phenyl]urea], for which the IC50 came out at 10.1 nM.

The assay is the same for the next values; noted with them: table of enzyme assay Test (a)(ii); read-out: Test (a)(ii) IC50.
Consider `C[C@H]1COCCN1c1cc(C2(S(=O)(=O)C(C)(C)C)CC2)nc(-c2ccc(NC(=O)Nc3ccc(C(F)(F)F)cc3)cc2)n1` [Example 18j, 1-[4-[4-(1-tert-butylsulfonylcyclopropyl)-6-[(3S)-3-methylmorpholin-4-yl]pyrimidin-2-yl]phenyl]-3-[4-(trifluoromethyl)phenyl]urea], for which the IC50 worked out at 30.3 nM.

Consider `CC(C)CNC(=O)Nc1ccc(-c2nc(N3CCOC[C@@H]3C)cc(C3(S(=O)(=O)c4ccc(Cl)cc4)CC3)n2)cc1` [Example 27c, 1-[4-[4-[1-(4-chlorophenyl)sulfonylcyclopropyl]-6-[(3S)-3-methylmorpholin-4-yl]pyrimidin-2-yl]phenyl]-3-(2-methylpropyl)urea], for which the IC50 stood at 14 nM.

`C[C@H]1COCCN1c1cc(C2(S(=O)(=O)c3ccccc3)CC2)nc(-c2ccc(NC(=O)NCC(F)F)cc2)n1` [Example 36dx, 1-[4-[4-[1-(benzenesulfonyl)cyclopropyl]-6-[(3S)-3-methylmorpholin-4-yl]pyrimidin-2-yl]phenyl]-3-(2,2-difluoroethyl)urea]: the IC50 is 2.62 nM.

In the case of `CNC(=O)Nc1ccc(-c2nc(N3CCOCC3)cc(C3(S(=O)(=O)C4CC4)CCCC3)n2)cc1` [Example 13k, 1-[4-[4-(1-cyclopropylsulfonylcyclopentyl)-6-morpholin-4-ylpyrimidin-2-yl]phenyl]-3-methylurea], the IC50 came to 17.9 nM.

Regarding `C[C@H]1COCCN1c1cc(C2(S(=O)(=O)c3cccc(F)c3)CC2)nc(-c2ccc(NC(=O)NCCO)cc2)n1` [Example 53b, 1-[4-[4-[1-(3-fluorophenyl)sulfonylcyclopro-pyl]-6-[(3S)-3-methylmorpholin-4-yl]pyrimidin-2-yl]phenyl]-3-(2-hydroxyethyl)urea], the IC50 worked out at 0.669 nM.

Regarding `C[C@H]1COCCN1c1cc(C2(S(=O)(=O)c3ccc(F)cc3)CC2)nc(-c2ccc(NC(=O)NC3(CO)CC3)cc2)n1` [Example 36x, 1-[4-[4-[1-(4-fluorophenyl)sulfonylcyclopropyl]-6-[(3S)-3-methylmorpholin-4-yl]pyrimidin-2-yl]phenyl]-3-[1-(hydroxymethyl)cyclopropyl]urea], the IC50 is 182 nM.

Consider `Cc1ccc(S(=O)(=O)C2(c3cc(N4CCOC[C@@H]4C)nc(-c4ccc(NC(=O)NCCF)cc4)n3)CC2)cc1` [Example 95o, 3-(2-fluoro-ethyl)-1-[4-[4-[(3S)-3-methylmorpholin-4-yl]-6-[1-(4-methylphenyl)sulfonylcyclopropyl]pyrimidin-2-yl]phenyl]urea], for which the IC50 amounted to 4.73 nM.

As for `CCS(=O)(=O)C1(c2cc(N3CCOC[C@@H]3C)nc(-c3ccc(NC(=O)NC4(CO)CC4)cc3)n2)CC1` [Example 36v, 1-[4-[4-(1-ethylsulfonylcyclopropyl)-6-[(3S)-3-methylmorpholin-4-yl]pyrimidin-2-yl]phenyl]-3-[1-(hydroymethyl)cyclopropyl]urea], the IC50 came to 467 nM.

On to `C[C@H]1COCCN1c1cc(C2(S(=O)(=O)C3CCCCC3)CC2)nc(-c2ccc(NC(=O)NC3CC3)cc2)n1` [Example 26, 1-[4-[4-(1-Cyclohexylsulfonylcyclopropyl)-6-[(3S)-3-methylmorpholin-4-yl]pyrimidin-2-yl]phenyl]-3-cyclopropylurea], for which the IC50 is 6.05 nM.

In the case of `C[C@H]1COCCN1c1cc(C2(S(=O)(=O)c3ccccc3)CC2)nc(-c2ccc(NC(=O)NCC(O)C(F)(F)F)cc2)n1` (stereo partly drawn) [Example 36be, 1-[4-[4-[1-(benzenesulfonyl)cyclopropyl]-6-[(3S)-3-methylmorpholin-4-yl]pyrimidin-2-yl]phenyl]-3-(3,3,3-trifluoro-2-hydroxypropyl)urea], the IC50 worked out at 3.76 nM.

Turning to `CCCNC(=S)Nc1ccc(-c2nc(N3CCOC[C@@H]3C)cc(C3(S(=O)(=O)CCCO)CC3)n2)cc1` [Example 37l, 3-[4-[4-[1-(3-hydroxypropylsulfonyl)cyclopro-pyl]-6-[(3S)-3-methylmorpholin-4-yl]pyrimidin-2-yl]phenyl]-1-propylthiourea], the IC50 was 32 nM.

Regarding `CNC(=O)Nc1ccc(-c2nc(N3CCOC[C@@H]3C)cc(C3(S(=O)(=O)c4cc(F)ccc4F)CC3)n2)cc1` [Example 60, 1-[4-[4-[1-(2,5-Difluorophenyl)sulfonylcyclopropyl]-6-[(3S)-3-methylmorpholin-4-yl]pyrimidin-2-yl]phenyl]-3-methylurea], the IC50 came to 12 nM.

As for `CNC(=O)Nc1ccc(-c2nc(N3CCOC[C@@H]3C)cc(C3(S(=O)(=O)c4ccccc4)CCOCC3)n2)cc1` [Example 36cy, 1-[4-[4-[4-(benzenesulfonyl)oxan-4-yl]-6-[(3S)-3-methylmorpholin-4-yl]pyrimidin-2-yl]phenyl]-3-methylurea], the IC50 was found to be 47.8 nM.

Consider `CC(C)NC(=O)Nc1ccc(-c2nc(N3CCOC[C@@H]3C)cc(C3(S(=O)(=O)c4ccccn4)CC3)n2)cc1` [Example 28d, 1-[4-[4-[(3S)-3-methylmorpholin-4-yl]-6-(1-pyridin-2-ylsulfonylcyclopropyl)pyrimidin-2-yl]phenyl]-3-propan-2-ylurea], for which the IC50 is 2.37 nM.

For `C[C@H]1COCCN1c1cc(C2(S(=O)(=O)CCC(C)(C)O)CC2)nc(-c2ccc(NC(=O)NCCO)cc2)n1` [Example 79b, 3-(2-hydroxyethyl)-1-[4-[4-[1-(3-hydroxy-3-methylbutyl)sulfonylcyclopropyl]-6-[(3S)-3-methylmorpholin-4-yl]pyrimidin-2-yl]phenyl]urea], the IC50 was 10.9 nM.

As to `C[C@H]1COCCN1c1cc(C2(S(=O)(=O)c3ccccc3)CCCC2)nc(-c2ccc(NC(=O)NCCC#N)cc2)n1` [Example 36bz, 1-[4-[4-[1-(benzenesulfonyl)cyclopentyl]-6-[(3S)-3-methylmorpholin-4-yl]pyrimidin-2-yl]phenyl]-3-(2-cyanoethyl)urea], the IC50 came out at 14.3 nM.

Turning to `Cc1ccc(F)cc1S(=O)(=O)C1(c2cc(N3CCOC[C@@H]3C)nc(-c3ccc(NC(=O)NC4CC4)cc3)n2)CC1` [Example 61a, 3-cyclopropyl-1-[4-[4-[1-(5-fluoro-2-methylphenyl)sulfonylcyclopropyl]-6-[(3S)-3-methylmorphohn-4-yl]pyrimidin-2-yl]phenyl]urea], the IC50 was 32.6 nM.

On to `C[C@H]1COCCN1c1cc(C2(S(=O)(=O)CCCO)CC2)nc(-c2ccc(NC(=O)NCC(=O)N(C)C)cc2)n1` [Example 36cs, 2-[[4-[4-[1-(3-hydroxypropylsulfonyl)cyclopropyl]-6-[(3S)-3-methylmorpholin-4-yl]pyrimidin-2-yl]phenyl]carbamoylamino]-N,N-dimethylactamide], for which the IC50 came to 1170 nM.

Regarding `C[C@H]1COCCN1c1cc(C2(S(=O)(=O)c3ccc(OC(F)F)cc3)CC2)nc(-c2ccc(NC(=O)NCC(F)F)cc2)n1` [Example 64f, 3-(2,2-difluoroethyl)-1-[4-[4-[1-[4-(difluoromethoxy)phenyl]sulfonyl-cyclopropyl]-6-[(3S)-3-methylmorpholin-4-yl]pyrimidin-2-yl]phenyl]urea], the IC50 was 5.21 nM.

For `CNC(=O)Nc1ccc(-c2nc(N3CCOC[C@@H]3C)cc(C3(S(=O)(=O)C(C)(C)C)CC3)n2)cc1` [Example 18i, 1-[4-[4-(1-tert-butylsulfonylcyclopropyl)-6-[(3S)-3-methylmorpholin-4-yl]pyrimidin-2-yl]phenyl]-3-methylurea], the IC50 came out at 5.55 nM.

`CCNC(=O)Nc1ccc(-c2nc(N3CCOC[C@@H]3CC)cc(C3(S(=O)(=O)c4ccccc4)CC3)n2)cc1` [Example 70, 1-[4-[4-[1-(Benzenesulfonyl)cyclopropyl]-6-[(3S)-3-ethylmorpholin-4-yl]pyrimidin-2-yl]phenyl]-3-ethylurea]: the IC50 turned out to be 2 nM.

For `Cc1csc(S(=O)(=O)C2(c3cc(N4CCOC[C@@H]4C)nc(-c4ccc(NC(=O)NCCO)cc4)n3)CCC2)n1` [Example 98e, 3-(2-hydroxyethyl)-1-[4-[4-[(3S)-3-methylmorpholin-4-yl]-6-[1-[(4-methyl-1,3-thiazol-2-yl)sulfonyl]cyclobutyl]pyrimidin-2-yl]phenyl]urea], the IC50 amounted to 3.35 nM.

Turning to `C[C@H]1COCCN1c1cc(C2(S(=O)(=O)c3ccc(C#N)cc3Cl)CC2)nc(-c2ccc(NC(=O)NCCF)cc2)n1` [Example 85i, 1-[4-[4-[1-(2-chloro-4-cyanophenyl)sulfonylcyclopropyl]-6-[(3S)-3-methylmorpholin-4-yl]pyrimidin-2-yl]phenyl]-3-(2-fluoroethyl)urea], the IC50 amounted to 15.3 nM.
